The text below walks through data of patent US20260200925A1, “SMALL MOLECULE INHIBITORS OF KRAS MUTATED PROTEINS” (MERCK SHARP & DOHME LLC, priority 2021, published 2026).

One assay concerns the target G13D (Homo sapiens, UniProt P01116, G13D). Kind of assay: Guanine nucleotide exchange (GNE) assay, G13D. The format is biochemical.
Assay [1] deals with Recombinant KRAS-G12D (SEQ ID NO: 2) (Homo sapiens, UniProt P01116, G12D). Kind of assay: SOS-catalyzed guanine nucleotide exchange (GNE) assay, KRAS-G12D.
Sequence of Recombinant KRAS-G12D (SEQ ID NO: 2) (P01116 with tags, fused parts or gaps isoform P01116-2 G12D): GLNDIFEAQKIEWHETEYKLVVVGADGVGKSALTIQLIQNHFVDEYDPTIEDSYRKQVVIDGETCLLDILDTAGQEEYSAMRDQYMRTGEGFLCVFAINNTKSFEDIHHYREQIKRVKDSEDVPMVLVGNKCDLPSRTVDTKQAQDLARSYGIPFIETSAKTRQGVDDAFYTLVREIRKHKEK
Description: (§1) Specifically, the SOS-catalyzed nucleotide exchange assay utilizes a preformed time-resolved fluorescence resonance energy transfer (TR-FRET) complex containing a specific biotinylated RAS protein (KRAS-G12C/V/D, HRAS, NRAS; described above) with BODIPY-GDP, and Terbium-streptavidin. Test compounds are preincubated with this complex for 60 minutes.
(§2) To assemble the preformed TR-FRET complexes, each biotinylated RAS protein is diluted to 2 μM in an EDTA Buffer (20 mM HEPES, 50 mM sodium chloride, 10 mM EDTA, and 0.01% Tween) and incubated at room temperature for one hour. This mixture is then further diluted to 90 nM in an Assay Buffer (20 mM HEPES, 150 mM sodium chloride, 10 mM magnesium chloride, and 0.005% Tween) containing 15 nM of Terbium-Streptavidin (Invitrogen, catalog #PV3577) and 900 nM of BODIPY-GDP (Invitrogen, catalog #G22360) and incubated at room temperature for six hours. It should be noted that this preformed TR-FRET complex for each of the RAS proteins was made ahead of time, aliquoted and stored at −80° C. until the day of the experiment.
(§3) Once titrations are made, 10 nL of the diluted compounds is acoustically dispensed into a 384-well assay plate (Corning, catalog #3820) using an Echo 550 (Labcyte). Each well of the assay plate subsequently receives 3 μL of a specific 3× RAS preformed TR-FRET complex and 3 μL of Assay Buffer and is incubated at room temperature for 60 minutes (preincubation time). […] The final reaction in each well of 9 μL consists of 3 mM GTP, and the specific RAS and SOS proteins in the following concentrations: KRAS-G12C/SOS=3 nM/40 nM, KRAS-G12D/SOS=1 nM/40 nM, KRAS-G12V/SOS=1.25 nM/160 nM, HRAS/SOS=1.25 nM/40 nM, and NRAS/SOS=1.25 nM/40 nM.
(§4) The TR-FRET signal is measured on an Envision (PerkinElmer) plate reader: Excitation filter=340 nm; emission 1=495 nm; emission 2=520 nm; dichroic mirror=D400/D505; delay time=100 ms. The signal of each well is determined as the ratio of the emission at 520 nm to that at 495 nm. […] The apparent effect as a function of compound concentration is fit to a four-parameter logistic equation to calculate IC50 values using Spotfire software.
Assay [2] concerns the target Recombinant KRAS-G12V (SEQ ID NO: 3) (Homo sapiens, UniProt P01116, G12V). The assay is described as follows: SOS-catalyzed guanine nucleotide exchange (GNE) assay, KRAS-G12V.
Description: as §1, §2, §3, §4
Assay [3] concerns AsPC-1 cells containing homozygous KRAS-G12D activating mutation (p-ERK). Conditions: Homo sapiens, ASPC1, 2 h, read-out: KRAS G12D ASPC-1 IC50 (nM).
Description: Procedure for Cellular Phospho-ERK Assay, G12D
AsPC-1 cells (ATCC® CRL-1682™), containing homozygous KRAS-G12D activating mutation, were cultured in T150 flask in growth medium (RPMI medium 1640-GlutaMAX™—I (ThermoFisher Scientific 61870) containing 10% fetal bovine serum (ThermoFisher Scientific 10091148)). The cells were harvested in growth medium after TrypLE (ThermoFisher scientific 12604021) digestion and were seeded in a 384-well collagen coated cell culture plate (Corning 356702) at a density of 15,000 cells/well, and incubated at 37° C., 5% CO2 overnight. […] RPMI medium 1640-GlutaMAX™—I was added to the intermediate plate and the contents of the intermediate plate were then transferred to the 384-well collagen coated cell culture plate, which was incubated at 37° C., 5% CO2 for 2 hours. After removal of medium from the collagen coated cell culture plate, cells were lysed in lysis buffer from Alpha SureFire® Ultra™ Multiplex p-ERK and total ERK assay kit (PerkinElmer MPSU-PTERK) containing Halt™ Protease and Phosphatase inhibitor cocktail (ThermoFisher Scientific 78446) at room temperature with constant shaking at 300 rpm for 30 minutes. The cell lysates were then transferred to an OptiPlate-384 plate (PerkinElmer 6005620), and the phosphorylation of ERK (p-ERK) and total ERK levels were detected by Alpha SureFire® Ultra™ Multiplex p-ERK kit and total ERK assay kit (PerkinElmer MPSU-PTERK) following the manufacturer's protocol. Assay plates were read on a EnVision Multimode Plate Reader (PerkinElmer), and the ratio of p-ERK vs. total ERK in each well was used as the final readout. Dose response curves were analyzed using a 4-parameter logistic model to calculate IC50 values using Spotfire software.
Assay [4] relates to NCI-H358 cells containing homozygous KRAS-G12C activating mutation (p-ERK). Conditions: Homo sapiens, NCI-H358, 2 h, read-out: G12C H358 IC50 (nM).
Description: Procedure for Cellular Phospho-ERK Assay, G12C
NCI-H358 cells (ATCC® CRL-5807™), containing homozygous KRAS-G12C activating mutation, were cultured in T150 flask in growth medium (RPMI medium 1640-GlutaMAX™—I (ThermoFisher Scientific 61870) containing 10% fetal bovine serum (ThermoFisher Scientific 10091148)). The cells were harvested in growth medium after TrypLE (ThermoFisher scientific 12604021) digestion and were seeded in a 384-well collagen coated cell culture plate (Corning 356702) at a density of 15,000 cells/well, and incubated at 37° C., 5% CO2 overnight. […] RPMI medium 1640-GlutaMAX™—I was added to the intermediate plate and the contents of the intermediate plate were then transferred to the 384-well collagen coated cell culture plate, which was incubated at 37° C., 5% CO2 for 2 hours. After removal of medium from the collagen coated cell culture plate, cells were lysed in lysis buffer from Alpha SureFire® Ultra™ Multiplex p-ERK and total ERK assay kit (PerkinElmer MPSU-PTERK) containing Halt™ Protease and Phosphatase inhibitor cocktail (ThermoFisher Scientific 78446) at room temperature with constant shaking at 300 rpm for 30 minutes. The cell lysates were then transferred to an OptiPlate-384 plate (PerkinElmer 6005620), and the phosphorylation of ERK (p-ERK) and total ERK levels were detected by Alpha SureFire® Ultra™ Multiplex p-ERK kit and total ERK assay kit (PerkinElmer MPSU-PTERK) following the manufacturer's protocol. Assay plates were read on an EnVision Multimode Plate Reader (PerkinElmer), and the ratio of p-ERK vs. total ERK in each well was used as the final readout. Dose response curves were analyzed using a 4-parameter logistic model to calculate IC50 values using Spotfire software.
A further assay deals with HRAS (SEQ ID NO: 4) (Homo sapiens, UniProt P01112). Kind of assay: SOS-catalyzed guanine nucleotide exchange (GNE) assay, HRAS.
Sequence of HRAS (SEQ ID NO: 4) (P01112 with tags, fused parts or gaps): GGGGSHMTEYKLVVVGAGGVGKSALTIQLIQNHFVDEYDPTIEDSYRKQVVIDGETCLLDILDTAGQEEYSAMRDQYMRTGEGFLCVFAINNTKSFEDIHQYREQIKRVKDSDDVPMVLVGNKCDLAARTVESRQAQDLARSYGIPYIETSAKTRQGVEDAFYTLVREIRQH
The next assay concerns the target NRAS (SEQ ID NO: 5) (Homo sapiens, UniProt P01111). Kind of assay: SOS-catalyzed guanine nucleotide exchange (GNE) assay, NRAS.

Some results are limits rather than exact numbers.

Sequence of G13D (P01116 1-188 isoform P01116-2 G13D): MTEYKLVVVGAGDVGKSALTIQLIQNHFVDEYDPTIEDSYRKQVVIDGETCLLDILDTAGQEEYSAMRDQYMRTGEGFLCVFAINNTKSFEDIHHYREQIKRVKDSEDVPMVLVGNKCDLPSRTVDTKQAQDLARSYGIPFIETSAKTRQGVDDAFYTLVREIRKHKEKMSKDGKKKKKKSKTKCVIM
Sequence of Recombinant KRAS-G12V (SEQ ID NO: 3) (P01116 with tags, fused parts or gaps isoform P01116-2 G12V): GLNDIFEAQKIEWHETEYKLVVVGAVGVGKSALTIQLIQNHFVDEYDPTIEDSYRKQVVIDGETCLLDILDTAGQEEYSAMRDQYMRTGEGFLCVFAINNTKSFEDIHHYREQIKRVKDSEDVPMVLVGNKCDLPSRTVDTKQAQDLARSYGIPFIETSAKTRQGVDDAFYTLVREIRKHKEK
Sequence of NRAS (SEQ ID NO: 5) (P01111 with tags, fused parts or gaps): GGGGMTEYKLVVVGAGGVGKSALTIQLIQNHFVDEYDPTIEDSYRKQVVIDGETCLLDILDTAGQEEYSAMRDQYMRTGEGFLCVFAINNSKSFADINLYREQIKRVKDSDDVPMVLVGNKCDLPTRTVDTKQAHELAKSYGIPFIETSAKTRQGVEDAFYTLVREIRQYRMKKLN
Description for G13D: as §4

For orientation: IC50 means the concentration at which inhibition is half-maximal. On to `C#Cc1cccc2cc(O)cc(-c3c(F)cc4c(N5CCCC(O)(C(F)F)C5)nc(OC[C@@]56CCCN5C[C@H](F)C6)nc4c3F)c12` (stereo partly drawn) [Ex-43, 3-(difluoromethyl)-1-(7-(8-ethynyl-3-hydroxynaphthalen-1-yl)-6,8-difluoro-2-(((2R,7aS)-2-fluorotetrahydro-1H-pyrrolizin-7a(5H)-yl)methoxy)quinazolin-4-yl)piperidin-3-ol], for which the IC50 against G13D is 8 nM; in assay [1] it was 13 nM; in assay [2], 10 nM; in assay [3], 215 nM; in assay [4], 58 nM.

`Oc1cc(-c2c(F)cc3c(N4CCCCC(O)C4)nc(OC[C@@]45CCCN4C[C@H](F)C5)nc3c2F)c2c(Cl)cccc2c1` (stereo partly drawn) [Ex-34, 1-(7-(8-chloro-3-hydroxynaphthalen-1-yl)-6,8-difluoro-2-(((2R,7aS)-2-fluorotetrahydro-1H-pyrrolizin-7a(5H)-yl)methoxy)quinazolin-4-yl)azepan-3-ol]: the IC50 against G13D turned out to be 441 nM; in assay [1] it was 285 nM; in assay [2], 589 nM; in assay [3] it was 6300 nM; in assay [4], 3620 nM.

For `CN(C)CC1(COc2nc(N3CCCC(C)(O)C3)c3cc(F)c(-c4cc(O)ccc4OC(F)(F)F)c(F)c3n2)CC1` (stereo not shown) [Ex-9, 1-(2-((1-((dimethylamino)methyl)cyclopropyl)methoxy)-6,8-difluoro-7-(5-hydroxy-2-(trifluoromethoxy)phenyl)quinazolin-4-yl)-3-methylpiperidin-3-ol], the IC50 against G13D was 221 nM; in assay [1], 315 nM; in assay [2] it was 381 nM; in assay [3], 1880 nM; in assay [4], 4210 nM.

For `CN(C)CC1(COc2nc(N3CCCC(C)(O)C3)c3cc(F)c(-c4cc(O)cc5ccccc45)c(F)c3n2)CC1` (stereo not shown) [Ex-8, 1-(2-((1-((dimethylamino)methyl)cyclopropyl)methoxy)-6,8-difluoro-7-(3-hydroxynaphthalen-1-yl)quinazolin-4-yl)-3-methylpiperidin-3-ol], the IC50 against HRAS (SEQ ID NO: 4) and against NRAS (SEQ ID NO: 5) was greater than 9950 nM each time.

As to `Cc1cc(N)nc(-c2c(Cl)cc3c(N4CCCC(C)(O)C4)nc(OC[C@@]45CCCN4C[C@H](F)C5)nc3c2F)c1C(F)(F)F` (single isomer, unassigned) [Ex-26], the IC50 against G13D amounted to 711 nM; in assay [1], 2010 nM; in assay [2], 1550 nM; in assay [3] it was 3920 nM; in assay [4], 7730 nM.

As for `CC1(O)CN(c2nc(OC[C@@]34CCCN3C[C@H](F)C4)nc3c(F)c(-c4cc(O)cc5cccc(Cl)c45)c(F)cc23)CCC1(F)F` (stereo partly drawn) [Ex-31, 1-(7-(8-chloro-3-hydroxynaphthalen-1-yl)-6,8-difluoro-2-(((2R,7aS)-2-fluorotetrahydro-1H-pyrrolizin-7a(5H)-yl)methoxy)quinazolin-4-yl)-4,4-difluoro-3-methylpiperidin-3-ol], the IC50 is 189 nM at G13D; 984 nM in assay [1]; 358 nM in assay [2]; 1730 nM in assay [3]; 468 nM in assay [4].

On to `C#Cc1cccc2cc(O)cc(-c3c(F)cc4c(N5CCCC(O)(CO)C5)nc(OC[C@@]56CCCN5C[C@H](F)C6)nc4c3F)c12` (stereo partly drawn) [Ex-48, 1-(7-(8-ethynyl-3-hy-droxynaphthalen-1-yl)-6,8-difluoro-2-(((2R,7aS)-2-fluorotetrahydro-1H-pyrrolizin-7a(5H)-yl)methoxy)quinazolin-4-yl)-3-(hydroxymethyl)piperidin-3-ol], for which the IC50 is 7 nM on G13D; 13 nM in assay [1]; 5 nM in assay [2]; 376 nM in assay [3]; 180 nM in assay [4].

Regarding `CC1(O)CN(c2nc(OC[C@@]34CCCN3C[C@H](F)C4)nc3c(F)c(-c4cc(O)cc5cccc(Cl)c45)c(F)cc23)CCC1F` (stereo partly drawn) [Ex-32, 1-(7-(8-chloro-3-hydroxynaphthalen-1-yl)-6,8-difluoro-2-(((2R,7aS)-2-fluorotetrahydro-1H-pyrrolizin-7a(5H)-yl)methoxy)quinazolin-4-yl)-4-fluoro-3-methylpiperidin-3-ol], the IC50 on G13D worked out at 16 nM; in assay [1], 59 nM; in assay [2], 40 nM; in assay [3], 261 nM; in assay [4], 118 nM.

On to `Oc1cc(-c2c(F)cc3c(N4CCCC(O)(C(F)(F)F)C4)nc(OC[C@@]45CCCN4C[C@H](F)C5)nc3c2F)c2c(Cl)cccc2c1` (single isomer, unassigned) [Ex-38], for which the IC50 on G13D was determined as 777 nM; in assay [1] it was 857 nM; in assay [2] it was 598 nM; in assay [3] it was 6860 nM; in assay [4] it was 2170 nM.

As for `C#Cc1c(F)ccc2cccc(-c3c(F)cc4c(N5CCC[C@@](C)(O)C5)nc(OC[C@@]56CCCN5[C@H](COC(=O)N(C)C)CC6)nc4c3F)c12` [Ex-45, ((3S,7aS)-7a-(((7-(8-ethynyl-7-fluoronaphthalen-1-yl)-6,8-difluoro-4-((R)-3-hydroxy-3-methylpiperidin-1-yl)quinazolin-2-yl)oxy)methyl)hexahydro-1H-pyrrolizin-3-yl)methyl dimethylcarbamate], the IC50 against G13D was 14 nM; in assay [1], 23 nM; in assay [2], 12 nM; in assay [3], 379 nM; in assay [4], 331 nM.

Turning to `CC1(O)CCCCN(c2nc(OC[C@@]34CCCN3C[C@H](F)C4)nc3c(F)c(-c4cc(O)cc5cccc(Cl)c45)c(F)cc23)C1` (single isomer, unassigned) [Ex-36], the IC50 on G13D turned out to be 142 nM; in assay [1] it was 398 nM; in assay [2] it was 300 nM; in assay [3], 1860 nM; in assay [4], 3580 nM.

Take `Cc1cc2[nH]ncc2c(-c2c(F)cc3c(N4CCC[C@H](O)CC4)nc(OC[C@@]45CCCN4C[C@H](F)C5)nc3c2F)c1C(F)(F)F` [Ex-40, (4S)-1-(6,8-difluoro-2-(((2R,7aS)-2-fluorotetrahydro-1H-pyrrolizin-7a(5H)-yl)methoxy)-7-(6-methyl-5-(trifluoromethyl)-1H-indazol-4-yl)quinazolin-4-yl)azepan-4-ol]: the IC50 on G13D was 931 nM; in assay [1], 173 nM; in assay [2], 470 nM; in assay [3], 1330 nM; in assay [4], 981 nM.

Turning to `C#Cc1cccc2cc(O)cc(-c3ncc4c(N5CCC[C@@](C)(O)C5)nc(OCC56CCCN5CCC6)nc4c3F)c12` [Ex-22, (R)-1-(7-(8-ethyny1-3-hydroxynaphthalen-1-yl)-8-fluoro-2-((tetrahydro-1H-pyrrolizin-7a(5H)-yl)methoxy)pyrido[4,3-d]pyrimidin-4-yl)-3-methylpiperidin-3-ol], the 50% inhibitory concentration (IC50) on G13D was determined as 1 nM; in assay [1] it was 1 nM; in assay [2] it was 2 nM; in assay [3], 1160 nM; in assay [4], 305 nM.

On to `C#Cc1cccc2cc(O)cc(-c3ncc4c(N5CCC[C@@](C)(O)C5)nc(OC[C@]5(CN(C)C)CC5(F)F)nc4c3F)c12` [Ex-24, (R)-1-(2-(((R)-1-((dimethylamino)meth-yl)-2,2-difluorocyclopropyl)methoxy)-7-(8-ethynyl-3-hydroxynaphthalen-1-yl)-8-fluoropyrido[4,3-d]pyrimidin-4-yl)-3-methylpiperidin-3-ol], for which the half-maximal inhibitory concentration (IC50) on G13D amounted to 1 nM; in assay [1] it was 1 nM; in assay [2] it was 1 nM; in assay [3], 20 nM; in assay [4], 2 nM.

On to `C#Cc1c(F)ccc2cccc(-c3c(F)cc4c(N5CCC[C@@](C)(O)C5)nc(OC[C@@]56CCCN5C[C@H](F)C6)nc4c3F)c12` [Ex-47, (3R)-1-(7-(8-ethynyl-7-fluoronaphthalen-1-yl)-6,8-difluoro-2-(((2R,7aS)-2-fluorotetrahydro-1H-pyrrolizin-7a(5H)-yl)methoxy)quinazolin-4-yl)-3-methylpiperidin-3-ol], for which the IC50 stood at 173 nM against G13D; 239 nM in assay [1]; 390 nM in assay [2]; 2070 nM in assay [3]; 979 nM in assay [4].

Take `CC1(O)CCCN(c2nc(OC[C@@]34CCCN3C[C@H](F)C4)nc3c(F)c(-c4cc(O)cc5cccc(Cl)c45)c(F)cc23)C1` (stereo partly drawn) [Ex-29, 1-(7-(8-chloro-3-hydroxynaphthalen-1-yl)-6,8-difluoro-2-(((2R,7aS)-2-fluorotetrahydro-1H-pyrrolizin-7a(5H)-yl)methoxy)quinazolin-4-yl)-3-methylpiperidin-3-ol]: the IC50 on G13D is 13 nM; in assay [1], 15 nM; in assay [2], 17 nM; in assay [3], 900 nM; in assay [4] it was greater than 30000 nM.

Take `C#Cc1cccc2cc(O)cc(-c3ncc4c(N5CCC[C@@](C)(O)C5)nc(OC[C@@]56CCCN5C[C@H](F)C6)nc4c3F)c12` [Ex-23, (R)-1-(7-(8-ethynyl-3-hydroxynaphthalen-1-yl)-8-fluoro-2-(((2R,7aS)-2-fluorotetrahydro-1H-pyrrolizin-7a(5H)-yl)methoxy)pyrido[4,3-d]pyrimidin-4-yl)-3-methylpiperidin-3-ol]: the IC50 against G13D came out at 2 nM; in assay [1] it was 1 nM; in assay [2] it was 1 nM; in assay [3] it was 65 nM; in assay [4], 14 nM.
